Measurements as given in patent US9655968B2, “Baclofen solution for low-volume therapeutic delivery” (Wayne State University, priority 2007, dated 2017).
Values after ≈ are worked out from the molar mass of the structure shown. Where two headings read alike, the source gives them in different places.

Experiments:
[1] = Baclofen solubilization study in multivalent physiologic ion (MPI) solution; format: physicochemical; conditions: aqueous buffer, thermodynamic from solid
Description: Multivalent physiologic ion solution formation. A solution (A) is produced with 8.66 g NaCl, 0.224 g KCl, 0.206 g CaCl2.2H2O and 0.163 g MgCl2.6H2O dissolving in 500 mL of deionized water. A solution (B) is produced with 0.214 g Na2HPO4.7H2O and 0.027 g NaH2PO4.H2O dissolving in 450 mL of water. The pH is adjusted to 6.0, 6.5, 7.0, 7.3, 7.6 and 8.0 as necessary with either NaOH or H3PO4 and dilution to final volume of 500 mL with deionized water. A final multivalent physiologic ion solution is obtained by mixing equal parts of Solution A and B. pH is tested and adjusted to the desired final pH if necessary. All reagents are available from sources known in the art. […]
Baclofen solubilization study in multivalent physiologic ion solution. […] The aliquots are analyzed by high performance liquid chromatography (HPLC). […] Baclofen concentrations above 4 mg/ml are readily achieved.
Analyses of baclofen solutions to confirm concentrations. Baclofen concentrations of Examples 2 and 3 are determined to confirm soluble levels in MPI or aCSF in the inventive solutions. Baclofen concentrations are quantified by LC/MS/MS using an Applied Biosystems API 400 electrospray triple quadrupole mass spectrometer. […] The transition between 214.1 and 151.2 is used for quantification. […]
Analyses of baclofen solutions to confirm concentrations. […] Baclofen concentrations are determined within 10% of expected values.

[2] = cited from earlier work
[3] = over a 10-year period, near neutral pH, room temperature; calculated, Ahuja 1985; cited from earlier work
[4] = LIORESAL INTRATHECAL product insert

SMILES: NCC(CC(=O)O)c1ccc(Cl)cc1 (stereo not shown) [Baclofen]
- solubility ([1]; MPI pH 6.0-8.0, 37° C., aliquots at 2, 5 and 30 min, HPLC, read-out: baclofen concentration achieved in MPI solution): > 4000 µg/mL
- solubility ([1]; rapidly achieved without sonication or excessive agitation, read-out: solubility of baclofen in MPI solution): 6000 µg/mL (≈ 28.1 mM)
- solubility in chloroform [2, 4]: insoluble
- solubility in methanol [2, 4]: very slightly soluble
- solubility in water [2, 4]: slightly soluble
- solubility in aqueous saline solution after extreme heating and intense agitation ([2]; heating to as much as 100° C., sonication or high speed stirring, US 2006/0009523): ≤ 12000 µg/mL
- baclofen concentration by acid dissolution and back titration method ([2]; initial dissolution at pH below 3.87, then base added, US 2006/0009523): ~10 mg/mL
- maximum saline concentration ([2]; saline): 2 mg/mL
- solubility in water or saline (known in the art) ([2]; water or saline): below 2 mg/mL
- degradation of dissolved baclofen [3]: less than 10%
